Source: US6737537B2, “Platinum (II) antitumor compounds” (Parker Hughes Institute, priority 1999, dated 2004)

Tests used:
U373 (Brain Tumor) = test: MTT cytotoxicity assay, U373 cells, 48 hours; type: cell-based; conditions: 48 hours incubation, read-out: IC50 [MTT Assays] U373 (Brain Tumor)
Method: (§1) Cytotoxicity was determined by MTT assays and the IC50 values were determined using Graphpad Prism Software.

NALM-6 (Leukemia) = test: MTT cytotoxicity assay, NALM-6 cells, 48 hours; type: cell-based, human; conditions: 48 hours incubation, read-out: IC50 [MTT Assays] NALM-6 (Leukemia)
Method: (§2) The cells were incubated with concentrations ranging from 0.1 μM to 250 μM of the appropriate compound in 96-well plates for 48 hours. Cytotoxicity was determined by MTT [(3-[4,5-dimethylthiazol-2-yl]-2,5-diphenyl tetrazolium bromide)] assays. The results are graphed in FIG. 1a for NALM-6 cells and FIG. 1b for MOLT-3 cells.
as §1

BT-20 (Breast Cancer) = test: MTT cytotoxicity assay, BT-20 cells, 48 hours; type: cell-based; conditions: 48 hours incubation, read-out: IC50 [MTT Assays] BT-20 (Breast Cancer)
Method: as §1

PC3 (Prostate Cancer) = test: MTT cytotoxicity assay, PC3 cells, 48 hours; type: cell-based; conditions: 48 hours incubation, read-out: IC50 [MTT Assays] PC3 (Prostate Cancer)
Method: as §1

MOLT-3 (Leukemia) = test: MTT cytotoxicity assay, MOLT-3 cells, 48 hours; type: cell-based, human; conditions: 48 hours incubation, read-out: IC50 [MTT Assays] MOLT-3 (Leukemia)
Method: as §2, §1

[1] = test system: U266BL (Multiple Myeloma); test: MTT cytotoxicity assay, U266BL cells, 48 hours; type: cell-based; conditions: 48 hours incubation, read-out: IC50 [MTT Assays] U266BL (Multiple Myeloma)
Method: as §1

[2] = test system: HS-Sultan (Multiple Myeloma); test: MTT cytotoxicity assay, HS-Sultan cells, 48 hours; type: cell-based; conditions: 48 hours incubation, read-out: IC50 [MTT Assays] HS-Sultan (Multiple Myeloma)
Method: as §1

[3] = test system: T-lineage acute lymphoblastic leukemia (MOLT-3) cells; test: Clonogenic growth assay, MOLT-3 cells; type: cell-based, human; conditions: 24 hours exposure, 7 days culture
Method: (§3) The effect on clonogenic growth of human cancer cell lines was determined for compound (5) as synthesized and described in example 2 and cisplastin for human B-lineage acute lymphoblastic leukemia (NALM-6) cells and T-lineage acute lymphoblastic leukemia (MOLT-3) cells. The cells were incubated with concentrations ranging from 0 (control) to 10 μM of the appropriate compound for 24 hours at 37° C. in a humidified 5% CO2 atmosphere. The cells were then resuspended in clonogenic a-MEM medium containing 0.9% methyl cellulose. 1×10^4 cells/dish were plated in 35 mm Petri dishes and cultured for 7 days at 37° C. in a humidified 5% CO2 atmosphere. The colonies containing ≧20 cells were counted using an inverted phase microscope.

[4] = test system: B-lineage acute lymphoblastic leukemia (NALM-6) cells; test: In situ apoptosis assay (TUNEL), NALM-6 cells; type: cell-based, human; conditions: 5 μM, 48 hours
Method: (§4) The effectiveness of inducing apoptosis by compound (5) as synthesized and described in example 2 was measured for human B-lineage acute lymphoblastic leukemia (NALM-6) cells, T-lineage acute lymphoblastic leukemia (MOLT-3) cells, and multiple myeloma (ARH-77) cells. The cells were incubated with concentrations of 5 μM of compound (5) in 96-well plates 48 hours. An in situ apoptosis assay, which allows the detection of exposed 3′-hydroxyl groups in fragmented DNA by TdT-mediated dUTP nick-end labeling (TUNEL), was used by fixing, permeabilizing and visualizing the DNA degradation. Apoptotic nuclei were detected visually with a color change. The amount of apoptotic nuclei of the control cells (not incubated with compound (5)) and the incubated cells were compared.

[5] = test system: B-lineage acute lymphoblastic leukemia (NALM-6) cells; test: Clonogenic growth assay, NALM-6 cells; type: cell-based, human; conditions: 24 hours exposure, 7 days culture
Method: as §3

[6] = test system: MDA-MB-231 (Breast Cancer); test: MTT cytotoxicity assay, MDA-MB-231 cells, 48 hours; type: cell-based; conditions: 48 hours incubation, read-out: IC50 [MTT Assays] MDA-MB-231 (Breast Cancer)
Method: as §1

[7] = test system: multiple myeloma (ARH-77) cells; test: In situ apoptosis assay (TUNEL), ARH-77 cells; type: cell-based, human; conditions: 5 μM, 48 hours
Method: as §4

[8] = test system: T-lineage acute lymphoblastic leukemia (MOLT-3) cells; test: In situ apoptosis assay (TUNEL), MOLT-3 cells; type: cell-based, human; conditions: 5 μM, 48 hours
Method: as §4

In the case of N.N.[Cl][Pt][Cl] [Cisplatin, reference compound], the IC50 (U373 (Brain Tumor)) is reported as greater than 250 µM, the IC50 (NALM-6 (Leukemia)) is reported as 1.1 ± 0.02 µM and the IC50 (BT-20 (Breast Cancer)) is reported as 7.21 ± 3.5 µM. For the same compound, the IC50 (PC3 (Prostate Cancer)) was greater than 250 µM, the IC50 (MOLT-3 (Leukemia)) was 1.04 ± 0.02 µM and the IC50 [1] was 15.6 ± 3.5 µM. It also gave an IC50 [2] of 31.8 ± 7.2 µM.
In the case of cis-[Pt(CPDCA)(DACH)]H2O [(5) DDE250], the IC50 (U373 (Brain Tumor)) is reported as greater than 250 µM, the “% Inhibition (clonogenic growth)” value ([3]; MOLT-3, 0.01 μM) is reported as 67.7% and the “Mean No. of Colonies/10^5 cells” value ([3]; MOLT-3, 0.01 μM) is reported as 1182 (1080, 1284) Colonies/10^5 cells. For the same compound, the “% Inhibition (clonogenic growth)” value ([3]; MOLT-3, 0.1 μM) was 67.5%, the “Mean No. of Colonies/10^5 cells” value ([3]; MOLT-3, 0.1 μM) was 1188 (1095, 1281) Colonies/10^5 cells and the “% Inhibition (clonogenic growth)” value ([3]; MOLT-3, 1 μM) was 95.1%. The “Mean No. of Colonies/10^5 cells” value ([3]; MOLT-3, 1 μM) was 179 (170, 188) Colonies/10^5 cells, the “Mean No. of Colonies/10^5 cells” value ([3]; MOLT-3, 10 μM) was 0 Colonies/10^5 cells and the IC50 (NALM-6 (Leukemia)) was 0.45 ± 0.02 µM. The “apoptosis (apoptotic nuclei, TUNEL) over the control” value (from here on “apoptosis … over the control”) [4] was “greatly increased apoptosis over the control”, the IC50 (BT-20 (Breast Cancer)) was 21.3 ± 3.1 µM and the “% Inhibition (clonogenic growth)” value ([5]; NALM-6, 0.01 μM) was 42.9%. The “Mean No. of Colonies/10^5 cells” value ([5]; NALM-6, 0.01 μM) was 2110 (1928, 2292) Colonies/10^5 cells, the “% Inhibition (clonogenic growth)” value ([5]; NALM-6, 0.1 μM) was 48.4% and the “Mean No. of Colonies/10^5 cells” value ([5]; NALM-6, 0.1 μM) was 1908 (1886, 1930) Colonies/10^5 cells. For the same compound, the “% Inhibition (clonogenic growth)” value ([5]; NALM-6, 1 μM) was 93.3%, the “Mean No. of Colonies/10^5 cells” value ([5]; NALM-6, 1 μM) was 248 (228, 268) Colonies/10^5 cells and the “Mean No. of Colonies/10^5 cells” value ([5]; NALM-6, 10 μM) was 0 Colonies/10^5 cells. It also gave an IC50 (PC3 (Prostate Cancer)) greater than 250 µM, an IC50 [6] of 38.5 ± 6.4 µM and an IC50 (MOLT-3 (Leukemia)) of 0.66 ± 0.01 µM. For the same compound, the “apoptosis … over the control” value [7] was “greatly increased apoptosis over the control”, the “apoptosis … over the control” value [8] was “greatly increased apoptosis over the control” and the IC50 [1] was 18.6 ± 2.1 µM. For the same compound, the IC50 [2] was 21.5 ± 3.5 µM.
“cis-[Pt(CPDCA)(NH2C2H4OH)2] [(3) DDE248]” showed an IC50 (U373 (Brain Tumor)) of 130 ± 8.2 µM, an IC50 (NALM-6 (Leukemia)) of 75.3 ± 5.2 µM and an IC50 (BT-20 (Breast Cancer)) of 48.9 ± 7.3 µM. It also gave an IC50 (PC3 (Prostate Cancer)) of 248 ± 9.3 µM and an IC50 (MOLT-3 (Leukemia)) of 33.5 ± 4.5 µM.
cis-[Pt(CPDCA)(NH3)2]H2O [(6) DDE173] showed an IC50 (U373 (Brain Tumor)) greater than 250 µM, an IC50 (NALM-6 (Leukemia)) of 90.8 ± 6.2 µM and an IC50 (BT-20 (Breast Cancer)) greater than 250 µM. For the same compound, the IC50 (PC3 (Prostate Cancer)) was greater than 250 µM and the IC50 (MOLT-3 (Leukemia)) was 41.8 ± 3.5 µM.
